Reference: article PMC4659573 (PLoS ONE, 2015)
Blank lines part the entries; values can stand above or below the compound they belong to.

How the values were obtained:
[1] = tested on: primary CLL cells; experiment: CLL cell apoptosis, Annexin V staining within the CD19+ subset, flow cytometry; type: cell-based, human; conditions: for CLL cell apoptosis with selective CDK inhibitors: alone or in combination, data not shown
Description: Following approval by the Committee for Protection of Human Subjects at Dartmouth-Hitchcock Medical Center, the Institutional Review Board at Oregon Health and Science University and written consent of patients, peripheral blood was obtained from patients with B-CLL at the hematology clinics at the above institutions (N = 52). The mean time from CLL diagnosis to entry of study was 5 years; 39 patients (75%) were previously untreated. Isolation of peripheral blood mononuclear cells (PMBCs) was performed using standard Ficoll-Hypaque technique (Amersham, Piscataway, NJ). CLL samples had more than 90% CD5^+/CD19^+ cells, as determined by flow cytometry. CLL cells were cultured in RMPI-1640 medium supplemented with 15% fetal bovine serum, 100 U/mL penicillin, 100 μg/mL streptomycin, 2 mM L-glutamine, 25 mM HEPES, 100 μM non-essential amino acids and 1 mM sodium pyruvate (Lonza, Walkersville, MD). 10 CLL samples with 17p deletion were obtained from the CLL Center at Dana-Farber Cancer Institute. All experiments were performed with freshly isolated cells except the viability assays involving the latter, which were performed with viably frozen cells.
CLL cell apoptosis was measured in duplicates as previously described using the ApoScreen Annexin V Apoptosis Kit. Briefly, cells were resuspended in 150 μl of Annexin V binding buffer containing 1 μl of Annexin V-PE, 1 μl of 7-aminoactinomycin D (7-AAD) and 1 μl of CD19-mAbs (Southern Biotech, Birmingham, AL) followed by flow cytometry on a MACSQuant flow cytometer (Miltenyi Biotec, San Diego, CA). Flow cytometry analysis was performed using FlowJo software (Tree Star, Ashland, OR). P1446A was provided by Piramal Healthcare Ltd. (Mumbai, India). JNK Inhibitor VIII, SP600125, SB203580, ABT-737 and PD0332991 were obtained from Selleck Chemicals (Houston, TX) and CVT-313—from Santa Cruz Biotechnology (Dallas, TX).
Here and subsequently, apoptosis was determined by Annexin V staining within the CD19^+ subset of cells. Horizontal lines represent the mean. […] IC50 value was determined for CLL samples with mutated (N = 13) and unmutated IGHV (N = 10). […] Cytogenetics markers were determined by fluorescent in situ hybridization [no marker, 11q, trisomy 12, 13q, 17p]. Horizontal lines represent the mean. […] Since we noted a significant variation in baseline apoptosis between patient samples, normalization to the time-matched untreated controls was performed to more clearly reflect the drug-induced apoptosis. *- p<0.05 compared to untreated control.

[2] = tested on: relapsed/refractory CLL; conditions: cited from earlier work
[3] = target: T1, CDK1 (Homo sapiens, UniProt P06493); experiment: biochemical kinase profiling (Kinase 400-Profiler, ProQinase); conditions: S1 Fig
T1 construct: purchased ProQinase, Freiburg, Germany
Protocol: (§1) Supplementary file pone.0143685.s001.pptx: S1 Fig Determination of selectivity of P1446A-05 was established using biochemical kinase profiling (Kinase 400-Profiler, ProQinase, Freiburg, Germany). IC50 values were determined for the 37 kinases whose activity was inhibited by ≥60% at a drug concentration of 10 μM or less (as shown). […] (PPTX) Click here for additional data file.

[4] = target: T2, CDK2 (Homo sapiens, UniProt P24941); experiment: as above; conditions: S1 Fig
T2 construct: purchased ProQinase, Freiburg, Germany
Protocol: as §1

[5] = target: T3, CDK4 (Homo sapiens, UniProt P11802); experiment: as above; conditions: S1 Fig
T3 construct: purchased ProQinase, Freiburg, Germany
Protocol: as §1

[6] = target: T4, CDK5 (Homo sapiens, UniProt Q00535); experiment: as above; conditions: S1 Fig
T4 construct: purchased ProQinase, Freiburg, Germany
Protocol: as §1

[7] = target: T5, CDK6 (Homo sapiens, UniProt Q00534); experiment: as above; conditions: S1 Fig
T5 construct: purchased ProQinase, Freiburg, Germany
Protocol: as §1

[8] = target: T6, CDK8 (Homo sapiens, UniProt P49336); experiment: as above; conditions: S1 Fig
T6 construct: purchased ProQinase, Freiburg, Germany
Protocol: as §1

[9] = tested on: kinases (Kinase 400-Profiler panel); experiment: kinase selectivity profiling (Kinase 400-Profiler, ProQinase); type: biochemical; conditions: at a drug concentration of 10 μM or less
Protocol: as §1

[10] = target: T7, Glycogen synthase 3ß (GSK3ß) (Homo sapiens, UniProt P49841); experiment: biochemical kinase profiling (S1 Fig)
T7 construct: purchased ProQinase, Freiburg, Germany
Protocol: as §1

[11] = tested on: PIM kinase isoforms; experiment: biochemical kinase profiling (S1 Fig)
Protocol: as §1

[12] = tested on: HCT-116; set-up: method as in Piramal Healthcare Ltd., proprietary information; 24; conditions: HCT-116 xenograft mouse model; ref Piramal Healthcare Ltd., proprietary information; 24; cited from earlier work
[13] = tested on: H-460; set-up: method as in Piramal Healthcare Ltd., proprietary information; 24; conditions: H-460 xenograft mouse model; ref Piramal Healthcare Ltd., proprietary information; 24; cited from earlier work

T3 sequence (P11802 whole entry): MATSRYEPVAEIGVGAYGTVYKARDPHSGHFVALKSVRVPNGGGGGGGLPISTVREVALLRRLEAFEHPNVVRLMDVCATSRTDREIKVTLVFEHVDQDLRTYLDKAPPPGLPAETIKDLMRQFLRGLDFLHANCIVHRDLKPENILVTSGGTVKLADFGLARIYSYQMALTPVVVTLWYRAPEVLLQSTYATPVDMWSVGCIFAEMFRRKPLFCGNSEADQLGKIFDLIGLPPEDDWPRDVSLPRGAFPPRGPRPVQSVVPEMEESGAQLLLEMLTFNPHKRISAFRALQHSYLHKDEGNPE
T3 sequence (P24385 whole entry partner): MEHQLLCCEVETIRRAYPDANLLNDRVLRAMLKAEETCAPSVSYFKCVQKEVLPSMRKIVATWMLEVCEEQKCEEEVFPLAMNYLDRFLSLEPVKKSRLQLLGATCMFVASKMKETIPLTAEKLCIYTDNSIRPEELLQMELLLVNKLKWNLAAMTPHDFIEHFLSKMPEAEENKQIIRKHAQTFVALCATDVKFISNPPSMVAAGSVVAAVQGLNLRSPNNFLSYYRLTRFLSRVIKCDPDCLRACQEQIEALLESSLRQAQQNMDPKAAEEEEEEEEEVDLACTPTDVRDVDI
T6 sequence (P49336 whole entry): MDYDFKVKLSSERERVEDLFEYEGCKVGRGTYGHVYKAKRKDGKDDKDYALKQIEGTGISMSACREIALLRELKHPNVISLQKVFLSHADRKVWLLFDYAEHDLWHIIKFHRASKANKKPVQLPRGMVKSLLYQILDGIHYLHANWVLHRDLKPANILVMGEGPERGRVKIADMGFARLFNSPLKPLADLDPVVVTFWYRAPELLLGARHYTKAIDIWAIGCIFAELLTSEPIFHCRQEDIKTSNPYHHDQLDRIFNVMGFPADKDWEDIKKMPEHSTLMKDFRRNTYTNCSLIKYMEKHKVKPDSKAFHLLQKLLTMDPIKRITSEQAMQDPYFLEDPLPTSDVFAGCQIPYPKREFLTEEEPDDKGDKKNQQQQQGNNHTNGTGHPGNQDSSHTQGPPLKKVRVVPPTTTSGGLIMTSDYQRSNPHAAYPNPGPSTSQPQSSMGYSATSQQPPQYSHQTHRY
T6 sequence (P24863 whole entry partner): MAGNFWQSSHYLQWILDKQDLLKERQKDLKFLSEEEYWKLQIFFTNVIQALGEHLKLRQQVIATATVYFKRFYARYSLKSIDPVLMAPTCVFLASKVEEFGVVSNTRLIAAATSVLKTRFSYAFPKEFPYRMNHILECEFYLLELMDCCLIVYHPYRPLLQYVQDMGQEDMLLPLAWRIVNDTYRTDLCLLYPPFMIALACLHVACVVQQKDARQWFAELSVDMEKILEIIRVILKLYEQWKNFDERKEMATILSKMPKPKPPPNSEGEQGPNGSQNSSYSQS
T5 sequence (Q00534 whole entry): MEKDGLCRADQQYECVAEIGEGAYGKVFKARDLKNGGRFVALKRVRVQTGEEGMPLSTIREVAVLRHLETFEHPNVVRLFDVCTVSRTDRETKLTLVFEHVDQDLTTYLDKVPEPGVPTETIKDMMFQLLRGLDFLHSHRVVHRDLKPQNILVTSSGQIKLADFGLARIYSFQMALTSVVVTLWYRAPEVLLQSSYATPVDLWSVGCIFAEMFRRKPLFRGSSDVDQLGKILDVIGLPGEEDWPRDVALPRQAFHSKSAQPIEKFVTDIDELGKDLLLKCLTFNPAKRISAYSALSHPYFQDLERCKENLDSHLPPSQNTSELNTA
T5 sequence (P24385 whole entry partner): as the sequence (P24385 whole entry partner) above
T4 sequence (Q00535 whole entry): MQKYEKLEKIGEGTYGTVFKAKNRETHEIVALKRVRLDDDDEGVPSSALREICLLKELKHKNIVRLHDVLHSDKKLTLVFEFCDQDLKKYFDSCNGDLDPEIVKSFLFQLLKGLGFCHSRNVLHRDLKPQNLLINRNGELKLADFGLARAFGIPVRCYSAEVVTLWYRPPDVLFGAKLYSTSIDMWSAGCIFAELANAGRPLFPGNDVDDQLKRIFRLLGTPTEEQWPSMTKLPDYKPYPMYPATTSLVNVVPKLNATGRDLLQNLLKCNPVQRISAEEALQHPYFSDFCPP
T4 sequence (Q15078 99-307 partner limits assumed): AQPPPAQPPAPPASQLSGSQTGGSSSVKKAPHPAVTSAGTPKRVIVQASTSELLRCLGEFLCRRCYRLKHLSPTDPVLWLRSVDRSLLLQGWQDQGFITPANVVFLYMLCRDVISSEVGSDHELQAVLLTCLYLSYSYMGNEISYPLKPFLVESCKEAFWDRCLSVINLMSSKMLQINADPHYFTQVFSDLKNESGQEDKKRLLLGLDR
T1 sequence (P06493 whole entry): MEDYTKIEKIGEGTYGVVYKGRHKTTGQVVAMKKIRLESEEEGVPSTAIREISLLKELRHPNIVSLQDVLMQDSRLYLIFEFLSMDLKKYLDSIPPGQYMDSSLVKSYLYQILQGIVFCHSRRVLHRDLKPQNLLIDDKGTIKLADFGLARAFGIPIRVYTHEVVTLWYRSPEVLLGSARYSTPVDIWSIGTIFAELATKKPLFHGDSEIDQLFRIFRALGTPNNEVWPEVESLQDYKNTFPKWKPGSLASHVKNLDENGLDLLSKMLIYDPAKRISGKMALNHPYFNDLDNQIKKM
T1 sequence (P14635 whole entry partner): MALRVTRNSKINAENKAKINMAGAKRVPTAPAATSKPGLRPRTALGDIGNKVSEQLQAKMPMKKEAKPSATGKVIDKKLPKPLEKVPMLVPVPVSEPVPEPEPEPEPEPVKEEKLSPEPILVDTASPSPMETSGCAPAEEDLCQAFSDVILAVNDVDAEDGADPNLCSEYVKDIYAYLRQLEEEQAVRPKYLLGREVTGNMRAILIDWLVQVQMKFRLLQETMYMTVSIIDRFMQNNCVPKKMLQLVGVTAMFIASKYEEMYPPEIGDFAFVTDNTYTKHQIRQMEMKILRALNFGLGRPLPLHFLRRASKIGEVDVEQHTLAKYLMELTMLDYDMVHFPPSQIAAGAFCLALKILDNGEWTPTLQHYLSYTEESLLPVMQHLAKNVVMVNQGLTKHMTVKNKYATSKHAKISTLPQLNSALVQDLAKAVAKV
T7 sequence (P49841 whole entry): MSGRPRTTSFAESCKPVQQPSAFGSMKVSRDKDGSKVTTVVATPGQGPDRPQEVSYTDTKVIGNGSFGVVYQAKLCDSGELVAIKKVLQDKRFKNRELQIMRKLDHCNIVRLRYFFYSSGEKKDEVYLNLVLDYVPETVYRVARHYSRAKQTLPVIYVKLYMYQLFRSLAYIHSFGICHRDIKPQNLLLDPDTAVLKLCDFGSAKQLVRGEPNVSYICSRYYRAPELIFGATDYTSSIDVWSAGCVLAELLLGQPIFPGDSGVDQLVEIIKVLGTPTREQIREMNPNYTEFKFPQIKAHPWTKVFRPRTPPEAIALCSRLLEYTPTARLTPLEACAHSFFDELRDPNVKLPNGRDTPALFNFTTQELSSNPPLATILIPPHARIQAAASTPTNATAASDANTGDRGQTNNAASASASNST

Structure (SMILES): COc1ccc(CNc2nc(N(CCO)CCO)nc3c2ncn3C(C)C)cc1 [CVT-313, reference compound]
CLL cell apoptosis with selective CDK inhibitors [1]: did not lead to CLL cell apoptosis

Structure (SMILES): CCc1cnn2c(NCc3ccc[n+]([O-])c3)cc(N3CCCC[C@H]3CCO)nc12 [Dinaciclib]
overall response rate ([2]; patients with relapsed/refractory CLL): 54%

IC50 [3]: 25 nM
IC50 [4]: 180 nM
IC50 [5]: 90 nM
IC50 [6]: 210 nM
IC50 [7]: 210 nM
IC50 [8]: 12 nM
number of kinases whose activity was inhibited by ≥60% [9]: 37
concentration range of inhibition in vitro [10]: nanomolar concentration range
concentration range of inhibition in vitro [11]: nanomolar concentration range
Structure (SMILES): CN1CC[C@@H](c2c(O)cc(O)c3c(=O)cc(-c4ccc(C(F)(F)F)cc4Cl)oc23)[C@@H]1CO [P1446A]
cells that underwent apoptosis ([1]; 0.5 μM, 24 hour incubation, N = 10, vehicle control 29.2±2.0%): 47.2±3.5%
apoptosis of CLL cells ([1]; 1.5 μM, 24 hour incubation, N = 10): 83.3±3.3%
tumor growth in xenograft [12]: restricted growth
tumor growth in xenograft [13]: restricted growth

Structure (SMILES): CC(=O)c1c(C)c2cnc(Nc3ccc(N4CCNCC4)cn3)nc2n(C2CCCC2)c1=O [PD0332991, reference compound]
CLL cell apoptosis with selective CDK inhibitors [1]: did not lead to CLL cell apoptosis

Structure (SMILES): CN1CC[C@H](c2c(O)cc(O)c3c(=O)cc(-c4ccccc4Cl)oc23)[C@H](O)C1 [flavopiridol]
patients with responses [2]: 53%
